One assay has as its system 293 cells. Nature of the assay: SEAP assay: iMC (tandem FKBP) scaffold plus FRBL2-Caspase-9. The format is cell-based. Conditions: tandem FKBPs (iMC) present. Here is the method: FIGS. 16A and 16B are line graphs showing that tandem FKBP scaffold mediates FRBL2. Caspase activation in the presence of rapalogs. FIG. 16A. HEK-293 cells were transfected with 1 μg each of SRα-SEAP reporter plasmid, Δmyr.iMC.2A-anti-CD19.CAR.CD3ζ (pBP0608), and FRBL2. Caspase-9 (pBP0467). […] After ON incubation, cell supernatants were assayed for SEAP activity, as previously described. FIG. 16B. Similar to the experiment described in (FIG. 16A), except that cells were transfected with a membrane-localized (myristoylated) iMC.2A-CD19.CAR.CD3ζ (pBP0609), instead of non-myristoylated Δmyr.iMC.2A-CD19.CAR.CD3ζ (pBP0608).
In a second test for rapalog-mediated scaffold-based activation of Caspase-9, 293 cells were transiently transfected with SRα-SEAP reporter plasmid, plus myristoylated or non-myristoylated inducible iMC co-expressed with 1st generation anti-CD19 CAR, plus FRBL2-fused Caspase-9 (plasmid pBP0467) (FIG. 16).

The subject of the next assay is 293T cells. Nature of the assay: SeAP reporter assay: FRBL-Caspase9 plus FKBPv12-Caspase9 heterodimerization. The following applies: FRBL-Caspase 9 plus FKBPV12-Caspase 9. The format is cell-based. Here is the method: HEK 293T cells (5×10^5) were seeded on a 100-mm tissue culture dish in 10 mL DMEM4500, supplemented with glutamine, penicillin/streptomycin and 10% fetal calf serum. After 16-30 hours incubation, cells were transfected using Novagen's GeneJuice® protocol. Briefly, for each transfection, 0.5 mL OptiMEM was pipetted into a 1.5-mL microcentrifuge tube and 15 μL GeneJuice reagent added followed by 5 sec. vortexing. Samples were rested 5 minutes to settle the GeneJuice suspension. DNA (5 μg total) was added to each tube and mixed by pipetting up and down four times. Samples were allowed to rest for 5 minutes for GeneJuice-DNA complex formation and the suspension added dropwise to one dish of 293T cells. […]
24 hours after drug stimulation, 96-well plates were wrapped to prevent evaporation and incubated at 65° C. for 2 hours to inactivate endogenous and serum phosphatases while the heat-stable SeAP reporter remains (1, 4, 12). […] Phosphatase activity was measured by fluorescence with excitation at 355 nm and emission at 460 nm. […]
FIG. 37—Drug induced programmed cell death by homodimerization or heterodimerization of tagged caspase 9. […] Reporter activity is expressed as a percentage of the average of 8 control wells containing no drug. […]
FIG. 38—Rapalog-induced cell death switch. […] Reporter activity is expressed as a percentage of the average of 8 wells containing no drug. […]
A general note: Reporter assays use an easily measured gene product as a stand-in for the process of interest.

Each structure is given as a SMILES string.

For `COC1CC(CC(C)C2CC(=O)C(C)C=C(C)C(O)C(OC)C(=O)C(C)CC(C)C=CC=CC=C(C)C(OC(C)C)CC3CCC(C)C(O)(O3)C(=O)C(=O)N3CCCCC3C(=O)O2)CCC1O` (centres unmarked) [C7-isopropoxy-rapamycin, C7-isopropoxyrapamycin], the “activation of FRBL2-Caspase-9” value with 293 cells was “activated”. Further, in the assay with 293T cells, the “cell death (loss of SeAP reporter)” value was “dose-dependent high efficacy cell death switch”.
